Results on 10 compounds are retold here after ChEMBL document CHEMBL3045544, “Synthesis, antimicrobial and antioxidant activities of some new indole derivatives containing pyridopyrimidine and pyrazolopyridine moieties” (Med Chem Res, 2013).

In one series the test system is Aspergillus terreus. Briefly: Antimicrobial activity against Aspergillus terreus MTCC 1782 assessed as diameter of growth inhibition zone at 500 ug/ml after 72 hr by cup-plate method. Type of series: functional. The note with it: MTCC 1782, 72 h, read-out: DIZ.
The test system of series [1] is Radical scavenging activity. Briefly: Antioxidant activity assessed as DPPH radical scavenging activity at 25 ug/ml by spectrophotometric analysis. In kind it is functional.
The test system of a further series is Staphylococcus aureus. Briefly: Antimicrobial activity against Staphylococcus aureus ATCC 29513 assessed as diameter of growth inhibition zone at 500 ug/ml after 24 hr by cup-plate method. In kind it is functional. Conditions: ATCC 29513, 24 h, read-out: DIZ; call rule not given here.
Another series relates to Pseudomonas aeruginosa. Briefly: Antimicrobial activity against Pseudomonas aeruginosa MTCC 1688 assessed as diameter of growth inhibition zone at 500 ug/ml after 24 hr by cup-plate method. Type of series: functional. Conditions: MTCC 1688, 24 h, read-out: DIZ.
The test system of the next series is Aspergillus niger. Briefly: Antimicrobial activity against Aspergillus niger MTCC 281 assessed as diameter of growth inhibition zone at 500 ug/ml after 72 hr by cup-plate method. In kind it is functional. The note with it: MTCC 281, 72 h, read-out: DIZ.
For a further series, the system named is Escherichia coli. Briefly: Antimicrobial activity against Escherichia coli MTCC 723 assessed as diameter of growth inhibition zone at 500 ug/ml after 24 hr by cup-plate method. In kind it is functional. The note with it: MTCC 723, 24 h, read-out: DIZ.
The next series has as its system Aspergillus flavus. Briefly: Antimicrobial activity against Aspergillus flavus MTCC 1973 assessed as diameter of growth inhibition zone at 500 ug/ml after 72 hr by cup-plate method. In kind it is functional. The note with it: MTCC 1973, 72 h, read-out: DIZ.
For the next series, the system named is Klebsiella pneumoniae. Briefly: Antimicrobial activity against Klebsiella pneumoniae NCTC 13368 assessed as diameter of growth inhibition zone at 500 ug/ml after 24 hr by cup-plate method. Type of series: functional. The note with it: NCTC 13368, 24 h, read-out: DIZ.
The next series deals with Aspergillus oryzae. Briefly: Antimicrobial activity against Aspergillus oryzae MTCC 3567 assessed as diameter of growth inhibition zone at 500 ug/ml after 72 hr by cup-plate method. Type of series: functional. Conditions: MTCC 3567, 72 h, read-out: DIZ.
Series [2] is described as follows: Antioxidant activity assessed as ferric ion reducing activity after 20 min by FRAP assay. In kind it is functional.
Series [3] is described as follows: Metal chelating activity of the compound assessed as inhibition of ferrozine Fe2+ complex formation at 25 to 100 ug/ml after 10 min by spectrophotometric analysis. Type of series: physicochemical.
Series [4] has as its system Radical scavenging activity. Briefly: Antioxidant activity assessed as DPPH radical scavenging activity at 75 ug/ml by spectrophotometric analysis. Type of series: functional.
Series [5] deals with Radical scavenging activity. Briefly: Antioxidant activity assessed as DPPH radical scavenging activity at 100 ug/ml by spectrophotometric analysis. In kind it is functional.
Series [6] has as its system Radical scavenging activity. Briefly: Antioxidant activity assessed as DPPH radical scavenging activity at 50 ug/ml by spectrophotometric analysis. Type of series: functional.

As to `Nc1ncnc2nc(-c3ccc(Cl)cc3)cc(-c3c(-c4ccccc4)[nH]c4ccccc34)c12`, the zone of inhibition at 500 µg/mL in the series with Aspergillus terreus came out at 10 mm; with Staphylococcus aureus, 10 mm; in the series on Pseudomonas aeruginosa, 2 mm; in the series on Aspergillus niger, 10 mm; in the series with Escherichia coli, 8 mm; with Aspergillus flavus, 8 mm. Moreover, the zone of inhibition at 500 µg/mL with Klebsiella pneumoniae came to 5 mm; with Aspergillus oryzae, 2 mm. Further, the Activity in series [1] was found to be 66.8%.
`Cc1ccc(-c2cc(-c3c(-c4ccccc4)[nH]c4ccc(Cl)cc34)c3c(N)n[nH]c3n2)cc1`: in series [2], the Activity entry was “Dose-dependent effect”. The zone of inhibition at 500 µg/mL in the series with Aspergillus terreus worked out at 11 mm; in the series with Staphylococcus aureus, 10 mm; in the series on Pseudomonas aeruginosa it was 9 mm; in the series with Aspergillus niger, 8 mm; with Escherichia coli, 6 mm; with Aspergillus flavus it was 5 mm. Further, the zone of inhibition at 500 µg/mL with Klebsiella pneumoniae worked out at 9 mm; in the series on Aspergillus oryzae, 10 mm. In series [3], the “inhibition (INH)” value is “Active”.
Consider `O=c1[nH]cnc2nc(-c3ccccc3)cc(-c3c(-c4ccccc4)[nH]c4ccc(Cl)cc34)c12`, for which the zone of inhibition at 500 µg/mL was 10 mm with Aspergillus terreus; 5 mm in the series with Staphylococcus aureus; 8 mm in the series on Pseudomonas aeruginosa; 12 mm with Aspergillus niger; 12 mm with Escherichia coli; 9 mm with Aspergillus flavus. The figures for the zone of inhibition at 500 µg/mL with Klebsiella pneumoniae and in the series on Aspergillus oryzae were 14 mm and 12 mm, respectively. Besides, the Activity is 74.1% in series [4] and 78.8% in [5].
With `Nc1n[nH]c2nc(-c3ccc(Cl)cc3)cc(-c3c(-c4ccccc4)[nH]c4ccc(Cl)cc34)c12`, the zone of inhibition at 500 µg/mL in the series on Aspergillus terreus was 10 mm; in the series on Staphylococcus aureus, 10 mm; in the series on Pseudomonas aeruginosa, 6 mm; in the series with Aspergillus niger it was 6 mm; with Escherichia coli it was 10 mm; in the series on Aspergillus flavus, 8 mm. Further, the zone of inhibition at 500 µg/mL in the series on Klebsiella pneumoniae amounted to 11 mm; with Aspergillus oryzae, 10 mm. Besides, in [4], the Activity was determined as 73.5%.
As to `Nc1ncnc2nc(-c3ccccc3)cc(-c3c(-c4ccccc4)[nH]c4ccc(Cl)cc34)c12`, the zone of inhibition at 500 µg/mL was determined as 5 mm with Aspergillus terreus; 10 mm with Staphylococcus aureus; 8 mm with Pseudomonas aeruginosa; 10 mm with Aspergillus niger; 9 mm in the series on Escherichia coli; 8 mm in the series on Aspergillus flavus. Further, the figures for the zone of inhibition at 500 µg/mL in the series on Klebsiella pneumoniae and in the series with Aspergillus oryzae were 5 mm and 10 mm, respectively. Moreover, the Activity in [6] is 78%.
For `Cc1ccc(-c2cc(-c3c(-c4ccccc4)[nH]c4ccc(C)cc34)c3c(=O)[nH]cnc3n2)cc1`, the zone of inhibition at 500 µg/mL with Aspergillus terreus is 10 mm; with Staphylococcus aureus it was 8 mm; with Pseudomonas aeruginosa it was 10 mm; in the series with Aspergillus niger it was 10 mm; in the series with Escherichia coli it was 5 mm; with Aspergillus flavus it was 5 mm. Further, the zone of inhibition at 500 µg/mL in the series on Klebsiella pneumoniae is 12 mm; with Aspergillus oryzae, 8 mm. In series [1], the Activity came to 74.4%.
Turning to `Cc1ccc2[nH]c(-c3ccccc3)c(-c3cc(-c4ccccc4)nc4[nH]nc(N)c34)c2c1`, the Activity result is “Dose-dependent effect” in series [2], 75.2% in series [4] and 68.2% in series [5]. Further, the zone of inhibition at 500 µg/mL with Aspergillus terreus was 5 mm; in the series on Staphylococcus aureus, 10 mm; in the series on Pseudomonas aeruginosa it was 5 mm; in the series with Aspergillus niger it was 2 mm; with Escherichia coli it was 8 mm; in the series with Aspergillus flavus, 6 mm. Also, the zone of inhibition at 500 µg/mL is 9 mm with Klebsiella pneumoniae and 14 mm in the series on Aspergillus oryzae.
Regarding `Cc1ccc2[nH]c(-c3ccccc3)c(-c3cc(-c4ccc(Cl)cc4)nc4nc[nH]c(=O)c34)c2c1`, the zone of inhibition at 500 µg/mL with Aspergillus terreus stood at 9 mm; in the series on Staphylococcus aureus it was 9 mm; in the series with Pseudomonas aeruginosa, 8 mm; with Aspergillus niger it was 11 mm; in the series on Escherichia coli, 8 mm; with Aspergillus flavus it was 8 mm. The zone of inhibition at 500 µg/mL in the series with Klebsiella pneumoniae came to 6 mm; in the series on Aspergillus oryzae, 8 mm. Further, the Activity in series [6] is 72.7%.
On to `Nc1n[nH]c2nc(-c3ccccc3)cc(-c3c(-c4ccccc4)[nH]c4ccccc34)c12`, for which the zone of inhibition at 500 µg/mL in the series on Aspergillus terreus amounted to 8 mm; in the series with Staphylococcus aureus it was 8 mm; in the series with Pseudomonas aeruginosa it was 11 mm; with Aspergillus niger it was 10 mm; with Escherichia coli, 10 mm; in the series on Aspergillus flavus, 6 mm. The zone of inhibition at 500 µg/mL in the series with Klebsiella pneumoniae amounted to 10 mm; in the series with Aspergillus oryzae, 12 mm. Moreover, in series [6], the Activity turned out to be 75.5%.
Consider `Cc1ccc(-c2cc(-c3c(-c4ccccc4)[nH]c4ccc(Cl)cc34)c3c(=O)[nH]cnc3n2)cc1`, for which the zone of inhibition at 500 µg/mL in the series on Aspergillus terreus was 9 mm; with Staphylococcus aureus, 8 mm; in the series on Pseudomonas aeruginosa, 5 mm; in the series on Aspergillus niger, 11 mm; in the series with Escherichia coli, 10 mm; in the series on Aspergillus flavus, 8 mm. Besides, the zone of inhibition at 500 µg/mL in the series with Klebsiella pneumoniae came out at 11 mm; in the series with Aspergillus oryzae it was 10 mm. The Activity in series [1] came to 61.5%.
